Results as given in patent US12780800B1, “Triazole-pyridinyl substituted azacyclohexyl acetic acid compounds as LPA receptor antagonists” (Viva Star Biosciences Limited, priority 2021, dated 2022).

Target: T1, LPA1 (Homo sapiens, UniProt Q92633)
T1 construct: ProLink (PK) beta-galactosidase enzyme-fragment tag; host or cells: CHO-K1
Assay: LPA1 calcium flux assay (LPA1 functional antagonist assay)
Format: cell-based
Conditions: PathHunter CHO-K1 EDG2 β-Arrestin cell line; calcium indicator dye; stimulated with EC80 concentration of LPA; FLIPR Tetra
Procedure: Following overnight culture, cells were loaded with calcium indicator dye from the HitHunter Calcium No WashPLUS Assay kit (Eurofins DiscoverX Corporation, Cat #93-0091) for 45 minutes at 37° C. […] After compound addition, assay plates were equilibrated to room temperature for 30 minutes. […] IC50 values were determined by Chemical and Biological Information System from ChemInnovation Software, Inc. The compounds of this invention were tested for their activity to inhibit LPA1 as determined in an LPA1 functional antagonist assay as described herein.

T1 sequence (Q92633 whole entry, the tested form may be a part): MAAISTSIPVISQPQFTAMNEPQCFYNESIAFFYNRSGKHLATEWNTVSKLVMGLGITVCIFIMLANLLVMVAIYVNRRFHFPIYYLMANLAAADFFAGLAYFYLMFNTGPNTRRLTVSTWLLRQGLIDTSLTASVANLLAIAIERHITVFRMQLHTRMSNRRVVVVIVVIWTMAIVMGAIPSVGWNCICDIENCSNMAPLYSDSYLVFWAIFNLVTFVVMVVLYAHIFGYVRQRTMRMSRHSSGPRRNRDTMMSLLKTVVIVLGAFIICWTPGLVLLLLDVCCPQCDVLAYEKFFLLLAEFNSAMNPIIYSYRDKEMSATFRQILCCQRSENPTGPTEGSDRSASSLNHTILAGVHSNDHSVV

In the case of `CCc1nc(-c2nnn(C)c2Cn2cc(CC(C)C)ccc2=O)ccc1N1C[C@@H](CC(=O)O)CC(F)(F)C1` [Example 12, (S)-2-(1-(2-ethyl-6-(5-((5-isobutyl-2-oxopyridin-1(2H)-yl)methyl)-l-methyl-1H-1,2,3-triazol-4-yl)pyridin-3-yl)-5,5-difluoropiperidin-3-y)acetic acid], the IC50 is reported as < 100 nM.
`CCc1nc(-c2nnn(C)c2Cn2cc(CC3CC3)ccc2=O)ccc1N1C[C@@H](CC(=O)O)CC(F)(F)C1` [Example 13, (S)-2-(1-(6-(5-((5-(cyclopropylmethyl)-2-oxopyridin-1(2H)-yl)methyl)-1-methyl-1H-1,2,3-triazol-4-yl)-2-ethylpyridin-3-yl)-5,5-difluoropiperidin-3-yl)acetic acid] was tested, and the IC50 was < 100 nM.
With `CCc1nc(-c2nnn(C)c2Cn2cc(CC3CCC3)ccc2=O)ccc1N1C[C@@H](CC(=O)O)CC(F)(F)C1` [Example 14, (S)-2-(1-(6-(5-((5-(cyclobutylmethyl)-2-oxopyridin-1(2H)-y)methyl)-1-methyl-1H-1,2,3-triazol-4-yl)-2-ethylpyridin-3-yl)-5,5-difluoropiperidin-3-yl)acetic acid] the IC50 was < 100 nM.
In the case of `CCc1nc(-c2nnn(C)c2Cn2cc(C3CC3)ccc2=O)ccc1N1C[C@@H](CC(=O)O)CC(F)(F)C1` [Example 15, (S)-2-(1-(6-(5-((5-cyclopropyl-2-oxopyridin-1(2H)-yl)methyl)-1-methyl-1H-1,2,3-triazol-4-yl)-2-ethylpyridin-3-yl)-5,5-difluoropiperidin-3-yl)acetic acid], the IC50 is reported as < 100 nM.
For `CCc1nc(-c2nnn(C)c2Cn2cc(C(C)C)ccc2=O)ccc1N1C[C@@H](CC(=O)O)CC(F)(F)C1` [Example 16, (S)-2-(1-(2-ethyl-6-(5-((5-isopropyl-2-oxopyridin-1(2H)-yl)methyl)-1-methyl-1H-1,2,3-triazol-4-yl)pyridin-3-yl)-5,5-difluoropiperidin-3-yl)acetic acid], the IC50 was < 100 nM.
With `CCc1nc(-c2nnn(C)c2Cn2cc(C3CCC3)ccc2=O)ccc1N1C[C@@H](CC(=O)O)CC(F)(F)C1` [Example 17, (S)-2-(1-(6-(5-((5-cyclobutyl-2-oxopyridin-1(2H)-yl)methyl)-1-methyl-1H-1,2,3-triazol-4-yl)-2-ethylpyridin-3-yl)-5,5-difluoropiperidin-3-yl)acetic acid] the IC50 was < 100 nM.
An IC50 of 500 to 5000 nM was found for `CCc1nc(-c2nnn(C)c2Cn2cc(C3CC3)c(C)cc2=O)ccc1N1C[C@@H](CC(=O)O)CC(F)(F)C1` [Example 18] in this work.
With `CCc1nc(-c2nnn(C)c2Cn2cc(C)c(C3CC3)cc2=O)ccc1N1C[C@@H](CC(=O)O)CC(F)(F)C1` [Example 19, (S)-2-(1-(6-(5-((4-cyclopropyl-5-methyl-2-oxopyridin-1(2H)-yl)methyl)-1-methyl-1H-1,2,3-triazol-4-yl)-2-ethylpyridin-3-yl)-5,5-difluoropiperidin-3-yl)acetic acid] the IC50 was > 5000 nM.
`CCc1nc(-c2nnn(C)c2Cn2ccc(C#CC3CC3)cc2=O)ccc1N1C[C@@H](CC(=O)O)CC(F)(F)C1` [Example 20, (S)-2-(1-(6-(5-((4-(cyclopropylethynyl)-2-oxopyridin-1(2H)-yl)methyl)-1-methyl-1H-1,2,3-triazol-4-yl)-2-ethylpyridin-3-yl)-5,5-difluoropiperidin-3-yl)acetic acid] was tested, and the IC50 was > 5000 nM.
An IC50 of 500 to 5000 nM was found for `CCc1nc(-c2nnn(C)c2Cn2cc(C#CC3CC3)ccc2=O)ccc1N1C[C@@H](CC(=O)O)CC(F)(F)C1` [Example 21, (S)-2-(1-(6-(5-((5-(cyclopropylethynyl)-2-oxopyridin-1(2H)-yl)methyl)-1-methyl-1H-1,2,3-triazol-4-yl)-2-ethylpyridin-3-yl)-5,5-difluoropiperidin-3-yl)acetic acid] in this work.
An IC50 of 100 to 500 nM was found for `CCCc1ccc(=O)n(Cc2c(-c3ccc(N4CCC[C@H](CC(=O)O)C4)c(CC)n3)nnn2C)c1` [Example 22, (R)-2-(1-(2-ethyl-6-(1-methyl-5-((2-oxo-5-propylpyridin-1(2H)-yl)methyl)-1H-1,2,3-triazol-4-yl)pyridin-3-yl)piperidin-3-yl)acetic acid] in this work.
